Experimental data from patent publication US9328374B2, “Selective culture medium and method for detecting carbapenem-resistant bacteria in a test sample” (Institut National de la Sante et de la Recherche Medicale …, priority 2011, dated 2016).

Experiments:
Assay in all cases: MIC of imipenem, ertapenem and meropenem
K. pneumoniae = type: cell-based, Klebsiella pneumoniae
S. typhimurium = type: cell-based
P. mirabilis = type: cell-based
C. koseri = type: cell-based

C[C@@H](O)[C@H]1C(=O)N2C(C(=O)O)=C(SCCN=CN)C[C@H]12 [IPM, imipenem]
MIC (K. pneumoniae; K. pneumoniae LIB, OXA-48): 16 µg/mL
MIC (K. pneumoniae; K. pneumoniae LIE, KPC-2 + TEM-2 + OXA-9): >32 µg/mL
MIC (K. pneumoniae; K. pneumoniae LOU, OXA-48): 4 µg/mL
MIC (K. pneumoniae; K. pneumoniae MAD (VIM-1 + CTX-M-3)): 1 µg/mL
MIC (K. pneumoniae; K. pneumoniae MAD, VIM-1+ CTX-M-3): 1 µg/mL
MIC (K. pneumoniae; K. pneumoniae MEK (CTX-M-15 + SHV-11)): 1.5 µg/mL
MIC (K. pneumoniae; K. pneumoniae MEK, CTX-M-15 + SHV-11, non-carbapenemase producer, porin deficiency): 1.5 µg/mL
MIC (K. pneumoniae; K. pneumoniae MUS (KPC-2 + TEM-1 + SHV-11 + SHV-12)): 0.75 µg/mL
MIC (K. pneumoniae; K. pneumoniae MUS, KPC-2 + TEM-1 + SHV-11 + SHV-12): 0.75 µg/mL
MIC (K. pneumoniae; K. pneumoniae OM2 (NDM-1 + TEM-1 + CTX-M-3 + SHV-11 + OXA-1)): 0.75 µg/mL
MIC (K. pneumoniae; K. pneumoniae OM2, NDM-1 + TEM-1 + CTX-M-3 + SHV-11 + OXA-1): 0.75 µg/mL
MIC (K. pneumoniae; K. pneumoniae OM4, NDM-1 + TEM-1 + CTX-M-15 + SHV-12 + OXA-9): 4 µg/mL
MIC (K. pneumoniae; K. pneumoniae OM8, NDM-1 + TEM-1 + CTX-M-15 + SHV-11 + OXA-1): 2 µg/mL
MIC (K. pneumoniae; K. pneumoniae OM11, OXA-48 + TEM-1 + CTX-M-14): 0.5 µg/mL
MIC (K. pneumoniae; K. pneumoniae OM13, NDM-1 + TEM-1 + CTX-M-15 + SHV-28 + OXA-1 + OXA-9): 3 µg/mL
MIC (K. pneumoniae; K. pneumoniae OM14, OXA-48 + TEM-1): 0.5 µg/mL
MIC (K. pneumoniae; K. pneumoniae OM15, NDM-1 + CTX-M-15 + SHV-130 + OXA-1): 1.5 µg/mL
MIC (K. pneumoniae; K. pneumoniae OM16, NDM-1 + CTX-M-15 + OXA-1 + OXA-181): 8 µg/mL
MIC (K. pneumoniae; K. pneumoniae OM19, NDM-1 + CTX-M-15 + SHV-12 + OXA-1): 4 µg/mL
MIC (K. pneumoniae; K. pneumoniae OMA419 (NDM-1 + OXA-1)): 1.5 µg/mL
MIC (K. pneumoniae; K. pneumoniae OMA419, NDM-1 + OXA-1): 1.5 µg/mL
MIC (K. pneumoniae; K. pneumoniae OMA601, NDM-1 + CTX-M-15 + OXA-1 + OXA-9): >32 µg/mL
MIC (K. pneumoniae; K. pneumoniae OMA (OXA-181 + CTX-M-15 + OXA-1)): 0.5 µg/mL
MIC (K. pneumoniae; K. pneumoniae OMA, OXA-181 + CTXM-15 + OXA-1): 0.5 µg/mL
MIC (K. pneumoniae; K. pneumoniae RAM (OXA-48)): 1 µg/mL
MIC (K. pneumoniae; K. pneumoniae RAM, OXA-48): 1 µg/mL
MIC (K. pneumoniae; K. pneumoniae ROB (OXA-48 + CTX-M-15 + TEM-1)): 0.38 µg/mL
MIC (K. pneumoniae; K. pneumoniae ROU (OXA-48 + CTX-M-15)): 0.5 µg/mL
MIC (K. pneumoniae; K. pneumoniae ROU, OXA-48 + CTX-M-15): 0.5 µg/mL
MIC (K. pneumoniae; K. pneumoniae SCO (OXA-48)): 0.5 µg/mL
MIC (K. pneumoniae; K. pneumoniae SCO, OXA-48): 0.5 µg/mL
MIC (K. pneumoniae; K. pneumoniae SHI (CTX-M-15 + TEM-1 + SHV-1)): 0.25 µg/mL
MIC (K. pneumoniae; K. pneumoniae SHI, CTX-M-15 + TEM-1 + SHV-11, non-carbapenemase producer, porin deficiency): 0.25 µg/mL
MIC (K. pneumoniae; K. pneumoniae SHM (CTX-M-15 + TEM-1 + SHV-11)): 3 µg/mL
MIC (K. pneumoniae; K. pneumoniae SHM, CTX-M-15 + TEM-1 + SHV-11, non-carbapenemase producer, porin deficiency): 3 µg/mL
MIC (K. pneumoniae; K. pneumoniae SIC (OXA-48 + CTX-M-15 + SHV-28)): 0.25 µg/mL
MIC (K. pneumoniae; K. pneumoniae SIC, OXA-48 + CTX-M-15 + SHV-28): 0.25 µg/mL
MIC (K. pneumoniae; K. pneumoniae SIM (CTX-M-15 + TEM-1 + SHV-1)): 8 µg/mL
MIC (K. pneumoniae; K. pneumoniae SIM, CTX-M-15 + TEM-1 + SHV-1, non-carbapenemase producer, porin deficiency): 8 µg/mL
MIC (K. pneumoniae; K. pneumoniae TAW, IMP-8 + SHV-12): 0.5 µg/mL
MIC (K. pneumoniae; K. pneumoniae TIK, OXA-48): 0.75 µg/mL
MIC (K. pneumoniae; K. pneumoniae TUR (IMP-1)): 1 µg/mL
MIC (K. pneumoniae; K. pneumoniae TUR, IMP-1): 1 µg/mL
MIC (K. pneumoniae; K. pneumoniae TWA, IMP-8): 1 µg/mL
MIC (K. pneumoniae; K. pneumoniae UK (NDM-1 + CTX-M-15 + CMY-4 + OXA-1)): >32 µg/mL
MIC (K. pneumoniae; K. pneumoniae UK, NDM-1 + CTX-M-15 + CMY-4 + OXA-1): >32 µg/mL
MIC (K. pneumoniae; K. pneumoniae VER, OXA-48 + TEM-1 + CTX-M-15 + SHV-11): 0.38 µg/mL
MIC (K. pneumoniae; K. pneumoniae VSG (OXA-48 + TEM-1 + CTX-M-15 + OXA-1)): 0.75 µg/mL
MIC (K. pneumoniae; K. pneumoniae VSG, OXA-48 + TEM-1 + CTX-M-15 + OXA-1): 0.75 µg/mL
MIC (K. pneumoniae; K. pneumoniae YC, KPC-2 + TEM-1 + SHV-11 + SHV-12 + OXA-9): 4 µg/mL
MIC (K. pneumoniae; strain K. pneumoniae 7725, SHV-1, non-carbapenemase producer): 0.19 µg/mL
MIC (K. pneumoniae; strain K. pneumoniae 648236, SHV-2a, non-carbapenemase producer): 0.25 µg/mL
MIC (K. pneumoniae; strain K. pneumoniae ALE, CTX-M-15 + SHV-1, non-carbapenemase producer): 1 µg/mL
MIC (K. pneumoniae; strain K. pneumoniae AMS, OXA-48 + TEM-1 + CTX-M-15 + OXA-1): 0.5 µg/mL
MIC (K. pneumoniae; strain K. pneumoniae BAJ, OXA-48 + TEM-1 + CTX-M-15 + SHV-28): 0.5 µg/mL
MIC (K. pneumoniae; strain K. pneumoniae BED, CTX-M-15 + TEM-1 + SHV-11, non-carbapenemase producer): 1.5 µg/mL
MIC (K. pneumoniae; strain K. pneumoniae BEL, OXA-48): 1 µg/mL
MIC (K. pneumoniae; strain K. pneumoniae BEN, OXA-48 + TEM-1 + CTX-M-15 + SHV-28): 0.38 µg/mL
MIC (K. pneumoniae; strain K. pneumoniae BER, SHV-28 + TEM-1, non-carbapenemase producer): 1 µg/mL
MIC (K. pneumoniae; strain K. pneumoniae ELK, OXA-48 + TEM-1 + CTX-M-15 + SHV-11): 0.5 µg/mL
MIC (K. pneumoniae; strain K. pneumoniae HOL, OXA-181 + CTX-M-15): 1 µg/mL
MIC (K. pneumoniae; strain K. pneumoniae MUS, KPC-2 + TEM-1 + SHV-11 + SHV-12): 0.75 µg/mL
MIC (K. pneumoniae; strain K. pneumoniae OM2, NDM-1 + TEM-1 + CTX-M-3 + SHV-11 + OXA-1): 0.75 µg/mL
MIC (K. pneumoniae; strain K. pneumoniae OMA419, NDM-1 + OXA-1): 1.5 µg/mL
MIC (K. pneumoniae; strain K. pneumoniae OMA, OXA-181 + CTXM-15 + OXA-1): 0.5 µg/mL
MIC (K. pneumoniae; strain K. pneumoniae ROU, OXA-48 + CTX-M-15): 0.5 µg/mL
MIC (K. pneumoniae; strain K. pneumoniae SCO, OXA-48): 0.5 µg/mL
MIC (K. pneumoniae; strain K. pneumoniae SIC, OXA-48 + CTX-M-15 + SHV-28): 0.25 µg/mL
MIC (K. pneumoniae; strain K. pneumoniae VSG, OXA-48 + TEM-1 + CTX-M-15 + OXA-1): 0.75 µg/mL
MIC (S. typhimurium; S. typhimurium 1081 (CTX-M-1)): 0.25 µg/mL
MIC (S. typhimurium; S. typhimurium 1081, CTX-M-1, non-carbapenemase producer): 0.25 µg/mL
MIC (S. typhimurium; strain S. typhimurium 1081, CTX-M-1, non-carbapenemase producer): 0.25 µg/mL
MIC (P. mirabilis; P. mirabilis 1031 (CTX-M-14 + TEM-1 + SHV-11)): 1.5 µg/mL
MIC (P. mirabilis; P. mirabilis 1031, CTX-M-14 + TEM-1 + SHV-11, non-carbapenemase producer): 1.5 µg/mL
MIC (P. mirabilis; P. mirabilis PMA (ACC-1)): 0.25 µg/mL
MIC (P. mirabilis; P. mirabilis PMA, ACC-1, non-carbapenemase producer): 0.25 µg/mL
MIC (C. koseri; C. koseri ROU, OXA-48): 0.38 µg/mL
MIC (C. koseri; C. koseri VER (OXA-48)): 0.75 µg/mL
MIC (C. koseri; C. koseri VER, OXA-48): 0.75 µg/mL
MIC (C. koseri; strain C. koseri VER, OXA-48): 0.75 µg/mL
